# Test system: HEK293T cells
# Assay: Pipette tip filter loading of fluorescein-labeled cargo into HEK293T cells, flow cytometry
# Format: cell-based
# Conditions: pipetted through the filter vs not passed through the filter, 0.4 million HEK293T, 12 hours recovery
# Procedure: To establish if other cargoes can be loaded with this method, 0.4 million HEK293T cells were mixed with 50 pmoles of fluorescein-labeled 21nt DNA oligonucleotide, 50 pmoles of fluorescein-labeled 21nt double-stranded siRNA, or 5 μg of fluorescein-dextran (MW 3000-5000) in 500 μl of OptiMEM. The mixture was aspirated and dispensed through the filter with the 1 ml pipette in triplicates. The mixture was then transferred into 2 ml of regular DMEM medium and the cells allowed to recover for 12 hours at 37° C. After which, the cells were washed 3 times with DMEM and collected for flow cytometry.
substance,measurement,value
Dextran,percentage of cells having a higher than background fluorescence,clearly higher
